Patent US20230414616A1, “LINE-1 INHIBITORS TO TREAT DISEASE” (Transposon Therapeutics, Inc., priority 2020, published 2023)

Test system: human LINE-1
Assay: Human LINE-1 retrotransposition assay (HeLa cell-based dual-luciferase reporter)
Conditions: HeLa cells, reporter plasmid pYX017, 72 h incubation, Firefly/Renilla
Experimental: Representative Compounds of the Disclosure were tested for inhibition of retrotransposition activity of human LINE-1 in HeLa cells according to the following procedure.
HeLa cervical cancer cells were cultivated at 37° C. in a humidified 5% CO2 incubator in Dulbecco's Modified Eagle's Medium (DMEM)—high glucose, with 4500 mg/L glucose, L-glutamine, sodium pyruvate and sodium bicarbonate (Sigma), supplemented with 10% of heat inactivated fetal bovine serum (Thermo Fisher).
Assays were performed using reporter plasmid pYX017 as described (Xie, et al., 2011) with several modifications. The reporter assay was performed in 96-well white optical bottom plates. HeLa cells were seeded in wells 24 h prior to transfection and compound treatment so that cells were approximately 30% confluent on the day of transfection. Different cell plating densities were tested and a density of 2×10^3 cells was determined to be optimal.
Compounds were resuspended in DMSO. Serial dilutions (1:3) were prepared in DMSO. Medium containing different concentrations of the compounds were prepared by adding 2 μl of the compound dilution to 1 ml of the culture medium. The final concentration of DMSO in the medium was 0.2%.
FuGENE® HD transfection reagent (Promega, E2311, Lot 382574 and Lot 397842) was used to transfect the plasmids into the cells. […] Different ratios of transfection reagent to DNA were tested and a ratio of 3:1 was determined to be optimal. […] A 72 h incubation time was determined to be optimal.
Luciferase reporter activity was quantified with the Dual-Luciferase® Reporter Assay System (Promega) according to manufacturer's instructions for multiwell plates except that cells were lysed directly on the multiwell plate with 30 μl of the passive lysis buffer (PLB) for 20 min at room temperature, with gentle shaking to ensure complete cell lysis.
Firefly and Renilla luciferase signals were measured using a SpectraMax i3x Multi-Mode Microplate Reader. […] Relative L1 activity is calculated as Firefly/Renilla *1000 or Firefly/Renilla *10,000. […]

IC50 (HeLa, 72 h) [nM] | SMILES | IC50 [nM]
2.6 | CC[C@]1(CO)O[C@@H](n2cnc3c(O)nc(N)nc32)C[C@@H]1O [Compound 27] | 
 | CC(C)OC(=O)[C@H](C)N[P@](=O)(CO[C@H](C)Cn1cnc2c(N)ncnc21)Oc1ccccc1 [tenofovir alafenamide, reference compound] | 10
830 | C#C[C@]1(CO)O[C@@H](n2cc(F)c(=O)[nH]c2=O)C[C@@H]1O [Compound 15] | 
